Data: US8471005B2 (Cephalon, Inc., priority 2008, dated 2013)
Like-named read-outs stand apart in the source and are kept apart here.

How the values were obtained:
[1] = molecular target: T1, ALK (Homo sapiens, UniProt Q9UM73); experiment: ALK Kinase Assay (ELISA/TRF, PLC-γ substrate); format: biochemical; settings: read-out: ALK Potency
T1 construct: host or cells: baculovirus expression system
Outline: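 Wells were coated with 10 μg/mL phospholipase C-γ substrate in TBS, and the reaction was started by adding 30 ng/ml ALK enzyme and run at 37° C for 15 minutes. Phosphorylated product was detected with Eu-N1-labeled PT66 antibody, and IC50 values came from sigmoidal variable-slope fits of percent inhibition against log concentration.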

[2] = molecular target: T2, JAK2 (Homo sapiens, UniProt O60674); experiment: Recombinant Human JAK2 Kinase Assay (TRF); format: biochemical; settings: read-out: JAK2 Potency
T2 construct: host or cells: baculovirus expression system
Outline: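 Baculovirus-expressed JAK2 (15 ng/ml) phosphorylated a biotinylated 15-mer peptide captured on Neutravidin-coated plates, in 20 mM HEPES pH 7.2 with 0.2 μM ATP, 1 mM MnCl2, 0.1% BSA and 2.5% DMSO. Reaction ran 20 min at room temperature; phosphopeptide was detected by time-resolved fluorescence with Eu-N1-labelled PY100 antibody.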

[3] = ALK kinase inhibition, 1 μM ATP
[4] = JAK2 kinase inhibition, 0.2 μM ATP

T2 sequence (O60674 whole entry): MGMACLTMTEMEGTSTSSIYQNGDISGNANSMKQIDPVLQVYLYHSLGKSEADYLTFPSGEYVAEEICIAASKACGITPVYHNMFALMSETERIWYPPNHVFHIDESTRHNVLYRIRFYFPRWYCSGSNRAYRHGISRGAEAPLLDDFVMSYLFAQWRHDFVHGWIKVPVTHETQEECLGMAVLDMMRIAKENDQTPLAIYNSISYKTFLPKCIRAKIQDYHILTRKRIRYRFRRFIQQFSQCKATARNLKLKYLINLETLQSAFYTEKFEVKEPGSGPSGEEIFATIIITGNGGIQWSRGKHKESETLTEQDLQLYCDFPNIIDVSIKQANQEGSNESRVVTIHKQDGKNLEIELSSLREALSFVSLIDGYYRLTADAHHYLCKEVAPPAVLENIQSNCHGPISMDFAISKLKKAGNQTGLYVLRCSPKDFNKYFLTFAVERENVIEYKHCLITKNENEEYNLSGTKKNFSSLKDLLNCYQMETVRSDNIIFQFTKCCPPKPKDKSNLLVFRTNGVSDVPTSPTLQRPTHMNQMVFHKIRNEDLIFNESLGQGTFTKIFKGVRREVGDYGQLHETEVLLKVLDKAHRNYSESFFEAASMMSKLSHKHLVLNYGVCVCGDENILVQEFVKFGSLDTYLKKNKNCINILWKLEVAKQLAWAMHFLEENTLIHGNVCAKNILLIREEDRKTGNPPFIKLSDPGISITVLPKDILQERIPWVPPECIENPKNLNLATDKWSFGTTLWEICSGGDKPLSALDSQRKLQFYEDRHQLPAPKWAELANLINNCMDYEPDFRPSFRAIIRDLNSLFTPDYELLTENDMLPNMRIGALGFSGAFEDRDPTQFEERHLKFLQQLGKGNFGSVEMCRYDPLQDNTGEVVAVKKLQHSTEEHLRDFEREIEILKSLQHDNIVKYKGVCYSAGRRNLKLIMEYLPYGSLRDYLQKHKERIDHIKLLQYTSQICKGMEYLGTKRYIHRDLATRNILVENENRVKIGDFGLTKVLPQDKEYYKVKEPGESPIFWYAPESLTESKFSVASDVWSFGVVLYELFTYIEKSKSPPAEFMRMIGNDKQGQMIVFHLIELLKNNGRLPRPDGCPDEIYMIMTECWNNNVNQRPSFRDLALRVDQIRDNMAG
T1 sequence (Q9UM73 19-1620): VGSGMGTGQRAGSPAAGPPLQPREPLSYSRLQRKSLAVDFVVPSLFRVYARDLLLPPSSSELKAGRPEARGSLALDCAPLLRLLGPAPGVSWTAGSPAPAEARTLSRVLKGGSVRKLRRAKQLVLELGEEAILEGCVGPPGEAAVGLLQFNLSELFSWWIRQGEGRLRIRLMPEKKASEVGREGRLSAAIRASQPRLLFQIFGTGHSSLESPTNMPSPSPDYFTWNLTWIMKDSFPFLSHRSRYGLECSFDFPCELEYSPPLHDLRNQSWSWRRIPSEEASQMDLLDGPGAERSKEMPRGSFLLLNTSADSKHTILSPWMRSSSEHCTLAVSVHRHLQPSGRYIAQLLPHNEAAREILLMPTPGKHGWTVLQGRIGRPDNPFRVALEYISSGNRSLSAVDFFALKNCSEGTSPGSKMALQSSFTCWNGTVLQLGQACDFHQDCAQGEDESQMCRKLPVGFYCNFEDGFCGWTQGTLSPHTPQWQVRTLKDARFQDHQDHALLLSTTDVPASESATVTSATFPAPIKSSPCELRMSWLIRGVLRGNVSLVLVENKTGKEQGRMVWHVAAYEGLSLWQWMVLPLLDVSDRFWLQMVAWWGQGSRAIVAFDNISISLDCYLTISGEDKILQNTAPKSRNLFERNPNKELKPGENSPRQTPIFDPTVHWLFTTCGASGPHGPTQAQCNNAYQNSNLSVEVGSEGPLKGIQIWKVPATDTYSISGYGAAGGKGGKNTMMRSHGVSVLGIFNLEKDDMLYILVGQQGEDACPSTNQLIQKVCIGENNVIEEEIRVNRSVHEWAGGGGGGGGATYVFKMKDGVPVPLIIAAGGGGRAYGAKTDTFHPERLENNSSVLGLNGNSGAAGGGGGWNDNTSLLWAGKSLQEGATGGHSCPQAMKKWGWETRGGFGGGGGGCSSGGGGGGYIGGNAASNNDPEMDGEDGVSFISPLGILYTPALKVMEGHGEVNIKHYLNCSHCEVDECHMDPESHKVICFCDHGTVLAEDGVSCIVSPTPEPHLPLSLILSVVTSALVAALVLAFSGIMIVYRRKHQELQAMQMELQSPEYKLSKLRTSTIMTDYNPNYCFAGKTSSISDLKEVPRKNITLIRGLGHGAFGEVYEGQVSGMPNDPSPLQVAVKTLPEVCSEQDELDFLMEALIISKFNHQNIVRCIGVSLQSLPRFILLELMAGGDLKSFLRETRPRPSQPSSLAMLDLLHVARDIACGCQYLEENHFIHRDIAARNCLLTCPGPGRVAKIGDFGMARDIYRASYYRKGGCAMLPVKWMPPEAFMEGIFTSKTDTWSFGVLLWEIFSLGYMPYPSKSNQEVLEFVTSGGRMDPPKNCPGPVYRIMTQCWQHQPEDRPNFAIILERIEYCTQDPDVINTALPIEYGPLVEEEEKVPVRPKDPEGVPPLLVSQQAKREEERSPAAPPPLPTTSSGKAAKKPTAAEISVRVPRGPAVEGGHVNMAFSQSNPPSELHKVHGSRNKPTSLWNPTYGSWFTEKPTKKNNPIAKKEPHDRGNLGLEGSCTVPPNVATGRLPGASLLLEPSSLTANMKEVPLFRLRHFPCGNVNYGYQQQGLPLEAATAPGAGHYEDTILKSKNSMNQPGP

## CN1CCc2ccc(Nc3ncc4ccc(-c5cccc(S(=O)(=O)NC(C)(C)C)c5)n4n3)cc2C1 [Example 931, N-tert-Butyl-3-[2-(2-methyl-1,2,3,4-tetrahydro-isoquinolin-7-ylamino)-pyrrolo[2,1-f][1,2,4]triazin-7-yl]-benzenesulfonamide]
[1]; [3]
  IC50: 100 to 1000 nM
[2]; [4]
  IC50: < 100 nM

## COc1cc(C2CCN(C[C@H](Oc3ncc4ccc(-c5ccccc5N(C)S(C)(=O)=O)n4n3)C(F)(F)F)CC2)ccc1N [Example 785, N-[2-(2-{(S)-1-[4-(4-Amino-3-methoxy-phenyl)-piperidin-1-ylmethyl]-2,2,2-trifluoro-ethoxy}-pyrrolo[2,1-f][1,2,4]triazin-7-yl)-phenyl]-N-methyl-methanesulfonamide]
[1]; [3]
  IC50: > 10000 nM
[2]; [4]
  IC50: > 10000 nM

## CN(c1ccccc1-c1ccc2cnc(Nc3ccc(N4CCOCC4)cc3)nn12)S(C)(=O)=O [Example 626, N-Methyl-N-{2-[2-(4-morpholin-4-yl-phenylamino)pyrrolo[2,1-f][1,2,4]triazin-7-yl]phenyl}methanesulfonamide]
[1]; [3]
  IC50: 100 to 1000 nM
[2]; [4]
  IC50: < 100 nM

## CCN1CC=C(c2ccc(Nc3ncc4ccc(-c5ccccc5N(C)S(C)(=O)=O)n4n3)c(OC)c2)CC1 [Example 744, N-(2-{2-[4-(1-Ethyl-1,2,3,6-tetrahydro-pyridin-4-yl)-2-methoxy-phenylamino]-pyrrolo[2,1-f][1,2,4]triazin-7-yl}-phenyl)-N-methyl-methanesulfonamide]
[1]; [3]
  IC50: < 100 nM
[2]; [4]
  IC50: 1000 to 10000 nM

## CN1CCN(c2ccc(Nc3ncc4ccc(-c5cnn(C)c5)n4n3)cc2)CC1 [Example 18, [4-(4-Methyl-piperazin-1-yl)-phenyl]-[7-(1-methyl-1H-pyrazol-4-yl)-pyrrolo[2,1-f][1,2,4]triazin-2-yl]-amine]
[1]; ALK Kinase Inhibition
  IC50: 100 to 1000 nM
[2]; JAK2 Kinase Inhibition
  IC50: < 100 nM

## COc1cc([C@@]2(O)CCN(CCF)C[C@@H]2O)ccc1Nc1ncc2ccc(-c3ccccc3N(C)S(C)(=O)=O)n2n1 (racemic) [Example 845, (±)-N-[2-(2-{4-[(3S,4S)-1-(2-Fluoro-ethyl)-3,4-dihydroxy-piperidin-4-yl]-2-methoxy-phenylamino}-pyrrolo[2,1-f][1,2,4]triazin-7-yl)-phenyl]-N-methyl-methanesulfonamide]
[1]; [3]
  IC50: < 100 nM
[2]; [4]
  IC50: 100 to 1000 nM

## CN1CCN(c2ccc(Nc3ncc4ccc(-c5ccc(CO)cc5)n4n3)cc2)CC1 [Example 1497, (4-{2-[4-(4-Methyl-piperazin-1-yl)-phenylamino]-pyrrolo[2,1-f][1,2,4]triazin-7-yl}-phenyl)-methanol]
[1]; ALK Kinase Inhibition
  IC50: < 100 nM
[2]; JAK2 Kinase Inhibition
  IC50: < 100 nM

## COc1cc(C2CCN(C[C@@H](C)O)CC2)ccc1Nc1ncc2ccc(-c3cc(Cl)ccc3OC)n2n1 [Example 794, (R)-1-(4-{4-[7-(5-Chloro-2-methoxy-phenyl)-pyrrolo[2,1-f][1,2,4]triazin-2-ylamino]-3-methoxy-phenyl}-piperidin-1-yl)-propan-2-ol]
[1]; [3]
  IC50: < 100 nM
[2]; [4]
  IC50: 100 to 1000 nM

## COc1cc(N2CCC(F)(F)CC2)ccc1Nc1ncc2ccc(-c3ccccc3N(C)S(C)(=O)=O)n2n1 [Example 1469, N-(2-{2-[4-(4,4-Difluoro-piperidin-1-yl)-2-methoxy-phenylamino]-pyrrolo[2,1-f][1,2,4]triazin-7-yl}-phenyl)-N-methyl-methanesulfonamide]
[1]; ALK Kinase Inhibition
  IC50: < 100 nM
[2]; JAK2 Kinase Inhibition
  IC50: 100 to 1000 nM

## COc1ccc(-c2ccc3cnc(Nc4ccc(C5CCN(CC(N)=O)CC5)c(NC(C)=O)c4)nn23)cn1 [Example 939, 2-(4-{2-Acetylamino-4-[7-(6-methoxy-pyridin-3-yl)-pyrrolo[2,1-f][1,2,4]triazin-2-ylamino]-phenyl}-piperidin-1-yl)-acetamide]
[1]; [3]
  IC50: 100 to 1000 nM
[2]; [4]
  IC50: < 100 nM

## NC(=O)CN1CCC(c2ccc(Nc3ncc4ccc(-c5cccc(S(=O)(=O)NC6CC6)c5)n4n3)cc2)CC1 [Example 930, 2-(4-{4-[7-(3-Cyclopropylsulfamoyl-phenyl)-pyrrolo[2,1-f][1,2,4]triazin-2-ylamino]-phenyl}-piperidin-1-yl)-acetamide]
[1]; [3]
  IC50: < 100 nM
[2]; [4]
  IC50: < 100 nM

## CCN(c1ccccc1-c1ccc2cnc(Nc3ccc(C4CCN(C[C@H](O)CO)CC4)cc3OC)nn12)S(C)(=O)=O [Example 872, N-[2-(2-{4-[1-((S)-2,3-Dihydroxy-propyl)-piperidin-4-yl]-2-methoxy-phenylamino}-pyrrolo[2,1-f][1,2,4]triazin-7-yl)-phenyl]-N-ethyl-methanesulfonamide]
[1]; [3]
  IC50: < 100 nM
[2]; [4]
  IC50: 100 to 1000 nM

## COc1cc(C2CCCN(CC(N)=O)C2)ccc1Nc1ncc2ccc(-c3ccccc3OC)n2n1 (racemic) [Example 860, (±)-2-(3-{3-Methoxy-4-[7-(2-methoxy-phenyl)-pyrrolo[2,1-f][1,2,4]triazin-2-ylamino]-phenyl}-piperidin-1-yl)-acetamide]
[1]; [3]
  IC50: < 100 nM
[2]; [4]
  IC50: < 100 nM

## CN1CCN(C(=O)C2CCCN(c3ccc(Nc4ncc5ccc(-c6ccccc6N(C)S(C)(=O)=O)n5n4)cc3)C2)CC1 (stereo not drawn) [Example 447, N-Methyl-N-[2-(2-{4-[3-(4-methyl-piperazine-1-carbonyl)-piperidin-1-yl]-phenylamino}-pyrrolo[2,1-f][1,2,4]triazin-7-yl)-phenyl]-methanesulfonamide]
[1]; ALK Kinase Inhibition
  IC50: < 100 nM
[2]; JAK2 Kinase Inhibition
  IC50: < 100 nM

## CN1CCN(c2cccc(Nc3ncc4ccc(-c5cccc(N6CCOCC6)c5)n4n3)c2)CC1 [Example 1392, [3-(4-Methyl-piperazin-1-yl)-phenyl]-[7-(3-morpholin-4-yl-phenyl)-pyrrolo[2,1-f][1,2,4]triazin-2-yl]-amine]
[1]; ALK Kinase Inhibition
  IC50: 100 to 1000 nM
[2]; JAK2 Kinase Inhibition
  IC50: < 100 nM

## COc1cc(-c2cccnc2)ccc1Nc1ncc2ccc(-c3ccccc3N(C)S(C)(=O)=O)n2n1 [Example 808, N-{2-[2-(2-Methoxy-4-pyridin-3-yl-phenylamino)-pyrrolo[2,1-f][1,2,4]triazin-7-yl]-phenyl}-N-methyl-methanesulfonamide]
[1]; [3]
  IC50: 100 to 1000 nM
[2]; [4]
  IC50: > 10000 nM

## CC(=O)N1CCc2ccc(Nc3ncc4ccc(-c5cccc(NS(C)(=O)=O)c5)n4n3)cc21 [Example 1367, N-{3-[2-(1-Acetyl-2,3-dihydro-1H-indol-6-ylamino)-pyrrolo[2,1-f][1,2,4]triazin-7-yl]-phenyl}-methanesulfonamide]
[1]; ALK Kinase Inhibition
  IC50: 1000 to 10000 nM
[2]; JAK2 Kinase Inhibition
  IC50: < 100 nM

## CN1CCN(C(=O)C2CCN(c3ccc(Nc4ncc5ccc(-c6ccc(S(C)(=O)=O)cc6)n5n4)cc3)CC2)CC1 [Example 445, (1-{4-[7-(4-Methanesulfonyl-phenyl)-pyrrolo[2,1-f][1,2,4]triazin-2-ylamino]-phenyl}-piperidin-4-yl)-(4-methyl-piperazin-1-yl)-methanone]
[1]; ALK Kinase Inhibition
  IC50: 100 to 1000 nM
[2]; JAK2 Kinase Inhibition
  IC50: < 100 nM

## COc1ccc(-c2ccc3cnc(Nc4ccc(N5CCN(CCO)CC5)cc4)nn23)cn1 [Example 1104, 2-(4-{4-[7-(6-Methoxy-pyridin-3-yl)-pyrrolo[2,1-f][1,2,4]triazin-2-ylamino]-phenyl}-piperazin-1-yl)-ethanol]
[1]; [3]
  IC50: 100 to 1000 nM
[2]; [4]
  IC50: < 100 nM

## COc1cc(C2CCN(C3COC3)CC2)ccc1Nc1ncc2ccc(-c3ccccc3OC)n2n1 [Example 827, [2-Methoxy-4-(1-oxetan-3-yl-piperidin-4-yl)-phenyl]-[7-(2-methoxy-phenyl)-pyrrolo[2,1-f][1,2,4]triazin-2-yl]-amine]
[1]; [3]
  IC50: < 100 nM
[2]; [4]
  IC50: 100 to 1000 nM

## COc1cc(N2CCC(N3CCOCC3)CC2)ccc1Nc1ncc2ccc(-c3ccc(F)cc3OC)n2n1 [Example 510, [7-(4-Fluoro-2-methoxy-phenyl)-pyrrolo[2,1-f][1,2,4]triazin-2-yl]-[2-methoxy-4-(4-morpholin-4-yl-piperidin-1-yl)-phenyl]-amine]
[1]; [3]
  IC50: < 100 nM
[2]; [4]
  IC50: < 100 nM

## c1ccc(NCc2ccc3cnc(Nc4ccc(N5CCOCC5)cc4)nn23)cc1 [Example 362, (4-Morpholin-4-yl-phenyl)-(7-phenylaminomethyl-pyrrolo[2,1-f][1,2,4]triazin-2-yl)-amine]
[1]; ALK Kinase Inhibition
  IC50: 1000 to 10000 nM
[2]; JAK2 Kinase Inhibition
  IC50: < 100 nM

## COc1cc(N2CCC(N(C)C)CC2)ccc1Nc1ncc2ccc(-c3ccccc3N(C)S(C)(=O)=O)n2n1 [Example 475, N-(2-{2-[4-(4-Dimethylamino-piperidin-1-yl)-2-methoxy-phenylamino]-pyrrolo[2,1-f][1,2,4]triazin-7-yl}-phenyl)-N-methyl-methanesulfonamide]
[1]; [3]
  IC50: < 100 nM
[2]; [4]
  IC50: 100 to 1000 nM

## CC(C)(C)NS(=O)(=O)c1cccc(-c2ccc3cnc(Nc4cccc(N5CCOCC5)c4)nn23)c1 [Example 1393, N-tert-Butyl-3-[2-(3-morpholin-4-yl-phenylamino)-pyrrolo[2,1-f][1,2,4]triazin-7-yl]-benzenesulfonamide]
[1]; ALK Kinase Inhibition
  IC50: 100 to 1000 nM
[2]; JAK2 Kinase Inhibition
  IC50: < 100 nM

## CC(=O)Nc1cccc(Nc2ncc3ccc(-c4cccc(NS(C)(=O)=O)c4)n3n2)c1 [Example 1363, N-{3-[7-(3-Methanesulfonylamino-phenyl)-pyrrolo[2,1-f][1,2,4]triazin-2-ylamino]-phenyl}-acetamide]
[1]; [3]
  IC50: 1000 to 10000 nM
[2]; [4]
  IC50: < 100 nM

## CN1CCC(c2ccc(Nc3ncc4ccc(-c5cccc(S(=O)(=O)N6CCCCC6)c5)n4n3)cc2)CC1 [Example 905, [4-(1-Methyl-piperidin-4-yl)-phenyl]-{7-[3-(piperidine-1-sulfonyl)-phenyl]-pyrrolo[2,1-f][1,2,4]triazin-2-yl}-amine]
[1]; [3]
  IC50: 100 to 1000 nM
[2]; [4]
  IC50: < 100 nM

## CC(C)(C)NS(=O)(=O)c1cccc(-c2ccc3cnc(Nc4ccc5ncsc5c4)nn23)c1 [Example 573, 3-[2-(Benzothiazol-6-ylamino)-pyrrolo[2,1-f][1,2,4]triazin-7-yl]-N-tert-butyl-benzenesulfonamide]
[1]; [3]
  IC50: > 10000 nM
[2]; [4]
  IC50: < 100 nM
